{
  "source": "patent US12329756B2",
  "about": "“Regulation of eIF4E activity for migraine therapy” (Board of Regents, The University of Texas System, priority 2020, dated 2025)",
  "key": {"[1]": {"test_system": "female ICR mice", "assay": "dural IL-6 facial hypersensitivity and hyperalgesic priming model (von Frey facial withdrawal threshold)", "assay_type": "in vivo", "conditions": "for hyperalgesic priming: response to second dural stimulus SIF pH 7.0: 25 μg dural co-injection with 0.1 ng IL-6, pH 7.0 given after return to baseline; for acute facial mechanical hypersensitivity after dural IL-6: 25 μg dural co-injection with 0.1 ng IL-6, versus IL-6 alone", "method": "Mice received a dural injection of interleukin-6 in the absence or presence of the protein synthesis inhibitor anisomycin or the translation initiation inhibitor 4EGI-1 and were tested for facial hypersensitivity. Upon returning to baseline, mice were given a second, non-noxious dural injection of pH 7.0 to test for priming. Additionally, eIF4ES209A mice lacking phosphorylation of mRNA cap-binding protein eIF4E received dural interleukin-6 or were subjected to repeated restraint stress and then tested for facial hypersensitivity. After returning to baseline, mice were given either dural pH 7.0 or a systemic sub-threshold dose of the nitric oxide donor sodium nitroprusside and tested for priming.\nFirst female mice were administered either 0.1 ng of IL-6, 25 μg of anisomycin (a general protein synthesis inhibitor), or a co-injection of both onto the dura to induce mechanical facial allodynia that persisted for more than 24 h and resolved by 72 h (FIG. 2). Upon returning to baseline, a second stimulus, SIF (pH 7.0), was administered onto the dura to reveal the presence of hyperalgesic priming from the initial IL-6 stimulus. […] This hypersensitivity persisted for more than 5 h.\nSimilar to the experiments used to generate FIG. 2, 0.1 ng of IL-6, 25 μg of 4EGI-1, a compound that mimics the activity of 4E-BP1, or a co-injection of both was administered onto the dura of female mice (FIG. 3). The resulting mechanical allodynia induced by IL-6 persisted for more than 24 h and resolved after 72 h. Upon returning to baseline, mice were exposed to a dural injection of low pH. […] Thus, assembly of the eIF4F complex locally in the dura appears to be critical to the development of long-lasting mechanical hypersensitivity following repeated stress.\nHuman recombinant IL-6 protein (R&D Systems) stock solution (100 mg/mL) was prepared in sterile 0.1% BSA and diluted to 1 ng/mL in synthetic interstitial fluid (SIF) consisting of 135 mM NaCl, 5 mM KCl, 10 mM HEPES, 2 mM CaCl2, 10 mM glucose, 1 mM MgCl2 (pH 7.4, 310 mOsm). Anisomycin (Tocris) stock solution (135 mg/mL) and 4EGI-1 (Enzo) stock solution (20 mg/mL) were both prepared in sterile 0.1% BSA and diluted to 5 mg/mL in SIF. Sodium nitroprusside (SNP) (Sigma-Aldrich) was prepared in sterile phosphate buffered saline (PBS) at the time of use and was kept away from light. For dural injections, mice received […] injections of either IL-6, anisomycin, 4EGI-1, SIF, or a combination of IL-6 and anisomycin or IL-6 and 4EGI-1 for acute testing. For testing the ability of mice to prime to the initial stimulus in these dural injection experiments, […] of SIF pH 7.0 were administered onto the dura. […]"}, "[2]": {"test_system": "Jurkat cells", "conditions": "cited from earlier work"}, "[3]": {"test_system": "A549 cells", "conditions": "cited from earlier work"}, "[4]": {"conditions": "local administration; cited from earlier work"}, "[5]": {"conditions": "in vivo; cited from earlier work"}, "[6]": {"molecular_target": "T1, Candida Pkc1 (Candida albicans, UniProt P43057)", "T1 sequence (P43057 1-1097)": "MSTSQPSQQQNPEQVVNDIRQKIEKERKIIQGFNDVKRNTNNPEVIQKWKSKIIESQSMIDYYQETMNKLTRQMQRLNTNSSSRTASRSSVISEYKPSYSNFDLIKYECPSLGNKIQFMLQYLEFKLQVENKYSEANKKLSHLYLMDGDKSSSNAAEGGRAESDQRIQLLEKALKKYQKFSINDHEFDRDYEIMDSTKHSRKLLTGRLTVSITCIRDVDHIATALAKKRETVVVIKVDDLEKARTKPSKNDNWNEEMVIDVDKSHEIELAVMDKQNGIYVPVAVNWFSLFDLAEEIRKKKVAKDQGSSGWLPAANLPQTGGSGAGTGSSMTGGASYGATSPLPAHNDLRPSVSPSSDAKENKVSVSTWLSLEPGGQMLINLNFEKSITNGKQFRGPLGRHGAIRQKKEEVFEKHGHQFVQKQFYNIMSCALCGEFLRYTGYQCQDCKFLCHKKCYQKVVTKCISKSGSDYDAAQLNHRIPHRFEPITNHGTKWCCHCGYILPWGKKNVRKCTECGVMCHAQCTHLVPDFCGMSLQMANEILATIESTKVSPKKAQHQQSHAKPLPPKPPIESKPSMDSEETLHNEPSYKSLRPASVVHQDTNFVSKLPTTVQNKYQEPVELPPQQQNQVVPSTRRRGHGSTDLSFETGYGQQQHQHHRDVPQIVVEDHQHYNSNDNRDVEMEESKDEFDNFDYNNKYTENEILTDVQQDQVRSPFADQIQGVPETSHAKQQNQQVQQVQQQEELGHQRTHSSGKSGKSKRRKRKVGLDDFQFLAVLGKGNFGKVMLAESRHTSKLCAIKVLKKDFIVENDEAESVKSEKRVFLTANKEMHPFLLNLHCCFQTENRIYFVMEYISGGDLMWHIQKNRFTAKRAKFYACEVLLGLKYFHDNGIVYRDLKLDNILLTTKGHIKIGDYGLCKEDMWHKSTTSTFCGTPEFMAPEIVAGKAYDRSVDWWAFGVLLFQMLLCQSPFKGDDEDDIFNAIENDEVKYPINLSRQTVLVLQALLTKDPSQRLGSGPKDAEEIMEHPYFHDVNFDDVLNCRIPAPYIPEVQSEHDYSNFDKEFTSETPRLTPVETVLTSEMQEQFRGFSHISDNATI", "conditions": "cited from earlier work"}, "[7]": {"test_system": "hyperglycemic mice", "conditions": "cited from earlier work"}, "[8]": {"test_system": "mice", "conditions": "Moy et al. (2017); cited from earlier work"}, "[9]": {"test_system": "hindpaw", "conditions": "local co-injection with IL-6 into the hindpaw, previous study; cited from earlier work"}, "[10]": {"test_system": "eIF4E phosphorylation at serine 209", "conditions": "in vitro, tumor cell lines, dose-dependent; read-out: IC50 for reduction of eIF4E phosphorylation at serine 209; cited from earlier work"}, "[11]": {"test_system": "DLBCL cell lines", "conditions": "multiple DLBCL cell lines; cited from earlier work"}, "[12]": {"test_system": "TNFa, IL-6, IL-10 and CXCL10 production in TMD8, OCI-Ly3 and HBL1 DLBCL cell lines", "conditions": "cited from earlier work"}, "[13]": {"test_system": "TNFa mRNA", "conditions": "cited from earlier work"}, "[14]": {"test_system": "models which harbor activating MyD88 mutations", "conditions": "in vivo, multiple models harboring activating MyD88 mutations; cited from earlier work"}},
  "data": [
    {"smiles": "O=C(O)C(Cc1ccccc1[N+](=O)[O-])=NNc1nc(-c2ccc(Cl)c(Cl)c2)cs1", "note": "[4EGI-1]", "values": [
      {"measurement": "hyperalgesic priming: response to second dural stimulus SIF pH 7.0", "setting": "[1]", "value": "robustly blocked"},
      {"measurement": "acute facial mechanical hypersensitivity after dural IL-6", "setting": "[1]", "value": "partially attenuated"},
      {"measurement": "activity against Jurkat cells", "setting": "[2]", "value": "exhibits activity"},
      {"measurement": "activity against A549 cells", "setting": "[3]", "value": "exhibits activity"},
      {"measurement": "mechanical hypersensitivity and injury-induced changes in nociceptor excitability", "setting": "[4]", "value": "reduces"}
    ]},
    {"smiles": "CC(=O)C1=C(O)C=C2Oc3c(C(N)=O)c(O)cc(O)c3[C@]2(C)C1=O", "note": "[Cercosporamide]", "values": [
      {"measurement": "oral bioavailability", "setting": "[5]", "value": "orally bioavailable"},
      {"measurement": "IC50", "setting": "[6]", "value": 0.025, "unit": "µM"},
      {"measurement": "plasma glucose", "setting": "[7]", "value": "lowering of plasma glucose"},
      {"measurement": "cold hypersensitivity induced by peripheral nerve injury", "setting": "[8]", "value": "reduced"}
    ]},
    {"smiles": "COc1ccc(C[C@H]2NC[C@H](O)[C@H]2OC(C)=O)cc1", "note": "[anisomycin]", "values": [
      {"measurement": "hyperalgesic priming: response to second dural stimulus SIF pH 7.0", "setting": "[1]", "value": "did not respond to the low pH"},
      {"measurement": "acute facial mechanical hypersensitivity after dural IL-6", "setting": "[1]", "value": "only minor differences"},
      {"measurement": "mechanical hypersensitivity and injury-induced changes in nociceptor excitability", "setting": "[4]", "value": "reduces"},
      {"measurement": "acute mechanical hypersensitivity after IL-6 into the hindpaw", "setting": "[9]", "value": "prevented"}
    ]},
    {"smiles": "Cc1cc(Nc2cc(N)ncn2)c(=O)n2c1C(=O)NC21CCCCC1", "note": "[eFT508]", "values": [
      {"measurement": "IC50", "setting": "[10]", "value": "0.002 to 0.016", "unit": "µM"},
      {"measurement": "anti-proliferative activity", "setting": "[11]", "value": "anti-proliferative activity"},
      {"measurement": "production of pro-inflammatory cytokines including TNFa, IL-6, IL-10 and CXCL10", "setting": "[12]", "value": "dose-dependent decreases"},
      {"measurement": "decrease in TNFa mRNA half-life", "setting": "[13]", "value": 2, "unit": "fold"},
      {"measurement": "anti-tumor activity", "setting": "[14]", "value": "significant anti-tumor activity"},
      {"measurement": "oral bioavailability", "setting": "[5]", "value": "orally bioavailable"}
    ]}
  ]
}
